From article PMC5926202, “Creation of a nanoformulated cabotegravir prodrug with improved antiretroviral profiles” (Biomaterials, 2017)
In brackets after ≈: the same amount, converted by molar mass.

Legend:
HIV = conditions: cited from earlier work
[1] = Solubility test in water and 1-octanol; format: physicochemical; conditions: room temperature; for solubility at 24 h: water, thermodynamic from solid, 24 h mixing
Description: The solubilities of CAB and MCAB in water and 1-octanol were determined by adding excess drug to each solution at room temperature then mixing for 24 h. Samples were centrifuged at 20,000 × g for 10 min to pellet insoluble drug. The supernatants containing solubilized drug were vacuum-dried then re-dispersed in methanol for drug concentration measurement using a Waters ACQUITY ultra performance liquid chromatography (UPLC) H-Class System with TUV detector and Empower 3 software (Milford, MA, USA). […] Drug content was quantitated by comparison of peak area to those of known standards (0.05–50 µg/mL in methanol).

[2] = system: HIV-1ADA in human monocyte derived macrophages (MDM); test: Antiretroviral activity of CAB and MCAB in HIV-1ADA infected MDM (HIV RT activity); format: cell-based; conditions: Human immunodeficiency virus 1, 168 h, HIV-1ADA MOI 0.1, MDM, 7 days after challenge
Description: (E) Antiretroviral activities of CAB and MCAB were evaluated in HIV-1ADA infected human monocyte derived macrophages (MDM). Inhibition rate was presented as percentage of reduced HIV reverse transcriptase (RT) activity as compared to positive control RT activity. Nonlinear regression was performed using log (drug concentration) vs. Inhibition rate with variable slope, and drug concentration for 50% inhibition (IC50) was calculated. […] Data are expressed as mean ± SD for n= 6 samples per group.
Monocyte-derived macrophages (MDM) were utilized. […] Briefly, monocytes were obtained by leukapheresis of HIV-1/2 and hepatitis B seronegative donor blood cells, followed by purification via countercurrent centrifugal elutriation. Elutriated monocytes were cultured as adherent cells in DMEM supplemented with 10% heat-inactivated pooled human serum, 10 µg/mL ciprofloxacin, 50 µg/mL gentamicin, and 1000 U/mL recombinant macrophage colony stimulating factor. Cells were maintained at 37 °C in a 5% CO2 incubator. Seven days later, differentiated macrophages were treated with various concentrations (0.06–1000 nM) of native CAB or MCAB for 30 min, followed by HIV-1ADA challenge at a multiplicity of infection (MOI) of 0.1 infectious viral particles/cell. […]

[3] = long-acting parenteral; cited from earlier work

For C[C@H]1CO[C@@H]2Cn3cc(C(=O)NCc4ccc(F)cc4F)c(=O)c(O)c3C(=O)N12 [CAB, cabotegravir], the “4 × PA-IC90” value (HIV; 4 times protein-binding-adjusted 90% inhibitory concentration ref 19-22) is given as 0.66 µg/mL, the PA-IC90 (HIV; protein-binding-adjusted ref 24) is given as 0.166 µg/mL and the solubility at 24 h [1] is given as 31.9 ± 14.4 µg/mL (≈ 78.7 µM). The IC50 [2] was 2.5 nM and the half-life [3] was “up to 54 days”.

With CCCCCCCCCCCCCC(=O)Oc1c2n(cc(C(=O)NCc3ccc(F)cc3F)c1=O)CC1OCC(C)N1C2=O (centres unmarked) [MCAB] the “increase in 1-octanol solubility compared to CAB” value [1] was 30 fold, the solubility at 24 h [1] was 5.6 ± 1.8 µg/mL (≈ 9.1 µM) and the IC50 [2] was 3.4 nM.
